The values that follow come from patent publication US11072628B2, “Nucleoside analogues for the treatment of parasitic infections” (UNIVERSITEIT GENT, priority 2017, dated 2021).

For data set [1], the system named is T. cruzi Tulahuen CL2 β galactosidase strain. Description: T. cruzi Tulahuen CL2 β galactosidase strain on MRC-5SV2 cells (CPRG). The format is cell-based, Trypanosoma cruzi. How it is done: All cultures and assays were conducted at 37° C./5% CO2. […] The results were expressed as % reduction in parasite burdens compared to control wells from which an EC50 was calculated.

Data set [2] deals with MRC-5 fibroblasts. Description: in vitro. Here is the method: (§1) Cytotoxicity was assayed against MRC-5 fibroblasts. Results are depicted in Tables 4 and 5.
Data set [3] relates to T. brucei Squib 427. The experiment in a line: In vitro drug susceptibility, T. brucei Squib 427 (resazurin). The format is cell-based, Trypanosoma brucei brucei. Here is the method:
(§2) All trypanosome strains were cultured in the standard HMI-9 medium supplemented with 10% fetal bovine serum (FBS) at 37° C. in a 5% CO2 atmosphere.

Data set [4] concerns T. b. rhodesiense STIB-900. Description: In vitro drug susceptibility, T. b. rhodesiense STIB-900 (resazurin). The format is cell-based, Trypanosoma brucei rhodesiense. The settings on record: Table 1; average of 2-4 independent determinations; read-out: T. brucei rhod. EC50. How it is done: as §2
On the technique in general: The colour change of resazurin is a common sign of viable cells or microbes.

Data set [5] can be described thus: Cytotoxicity against MRC-5 fibroblasts. The settings on record: human, MRC-5 fibroblasts, cytotoxicity. Here is the method: as §1
Where [6] appears, read: Table 2, average of 2-3 independent replicates.
Where [7] appears, read: Table 1, average of 2-4 independent determinations, read-out: T. brucei brucei EC50.

Broadly, the pEC50 is the negative decadic logarithm of the EC50, by convention in mol/L.

pEC50: −log10 of the molar value. Where two headings read alike, the source gives them in different places.

In the case of `Cn1cnc(-c2cn([C@@H]3O[C@H](CO)[C@@H](O)[C@H]3O)c3ncnc(N)c23)c1` [FH3182], the pEC50 was 5.08 in data set [1] (Table 5, average of 2-4 independent replicates); 4.63 in data set [2]; 5.32 in data set [3] (Table 4, average of 2-6 independent determinations, read-out: T.b. brucei EC50). In data set [3], the “anti-trypanosomal activity against T. brucei, in words” value is “low μM activity”.
Turning to `Nc1ncnc2c1c(-c1cccc(C(F)(F)F)c1)cn2[C@@H]1O[C@H](CO)C[C@H]1O` [FH10640, 4-amino-5-(3-trifluoromethylphenyl)-N7-(3′-deoxy-β-D-ribofuranosyl)-pyrrolo[2,3-d]pyrimidine], the pEC50 was 4.95 in data set [1] (setting [6]), 4.30 in data set [2], 5.75 in data set [4] and 5.07 in data set [3] (setting [7]).
As to `Nc1ncnc2c1c(-c1cnccn1)cn2[C@@H]1O[C@H](CO)[C@@H](O)[C@H]1O` [FH3179, 4-amino-5-(pyrazine-2-yl)-N7-(β-D-ribofuranosyl)-pyrrolo[2,3-d]pyrimidine], the negative logarithm of the EC50 (pEC50) is 6.07 in data set [1] (Trypanosoma cruzi, TULAHUEN, MRC-5 SV2, Table 5, average of 2-4 independent replicates); 6.26 in data set [5] (MRC-5 EC50, Table 4); 6.26 in data set [5] (MRC-5 EC50, Table 5); 5.71 in data set [3] (Trypanosoma brucei, read-out: T.b. brucei EC50, Table 4, average of 2-6 independent determinations). Also, the “cytotoxicity, in words” value in data set [2] is “submicromolar cytotoxicity”.
Take `C[C@@H]1C[C@@H](O)[C@H](n2cc(Br)c3c(N)ncnc32)O1` [FH8492, 4-amino-5-bromo-N7-(3′-5′-dideoxy-β-D-ribofuranosyl)-pyrrolo[2,3-d]pyrimidine]: the negative-log EC50 (pEC50) in data set [1] (setting [6]) is 4.92; in data set [2], 4.99; in data set [4], 4.70; in data set [3] (setting [7]), 4.47.
In the case of `CO[C@@H]1C[C@@H](CO)O[C@H]1n1cc(Br)c2c(N)ncnc21` [FH9616, 4-amino-5-bromo-N7-(2′-O-methyl-3′-deoxy-β-D-ribofuranosyl)-pyrrolo[2,3-d]pyrimidine], the negative-log EC50 (pEC50) was below 4.19 in data set [1] (setting [6]), below 4.19 in data set [2], 4.60 in data set [4] and 4.49 in data set [3] (setting [7]).
Regarding `Nc1ncnc2c1c(-c1ccc3ccccc3c1)cn2[C@@H]1O[C@H](CO)C[C@H]1O` [FH9575, 4-amino-5-(2-naftyl)-N7-(3′-deoxy-β-D-ribfuranosyl)-pyrrolo[2,3-d]pyrimidine], the pEC50 is 6.14 in data set [1] (setting [6]), 5.30 in data set [2], 5.70 in data set [4] and 4.73 in data set [3] (setting [7]).
The like results for `Nc1ncnc2c1ccn2[C@@H]1O[C@H](COS(N)(=O)=O)C[C@H]1O` [FH9608, 4-amino-N7-(3′-deoxy-5′-O-sulfamoyl-β-D-ribofuranosyl)-pyrrolo[2,3-d]pyrimidine] were, in that order, 5.00, 5.29, 6.06 and 5.34.
On the same counts, the results for “4-amino-5-bromo-N7-(2′,3′-anhydro-2′,3′-dideoxy-β-D-ribofuranosyl)-pyrrolo[2,3-d]pyrimidine [FH10632]” are below 4.19, 4.34, 4.22 and below 4.19.
With `OC[C@@H]1C[C@@H](O)[C@H](n2cc(Br)c3c(Cl)ccnc32)O1` [FH9540, 3-bromo-4-chloro-N1-(3′-deoxy-β-D-ribofuranosyl)-pyrrolo[2,3-b]pyridine], the negative logarithm of the EC50 (pEC50) was 4.82 in data set [1], 4.57 in data set [2], 4.54 in data set [4] and 4.83 in data set [3] (setting [7]).
`COc1ncnc2c1c(Br)cn2[C@@H]1O[C@H](CO)C[C@H]1O` [FH8497, 4-methoxy-5-bromo-N7-(3′-deoxy-β-D-ribofuranosyl)-pyrrolo[2,3-d]pyrimidine]: the negative-log EC50 (pEC50) is below 4.19 in data set [1] (setting [6]), 5.57 in data set [2], 5.43 in data set [4] and 5.58 in data set [3] (setting [7]).
Consider `Nc1ccnc2c1ccn2[C@@H]1O[C@H](CO)C[C@H]1O` [FH9550, 4-amino-N1-(3′-deoxy-β-D-ribofuranosyl)-pyrrolo[2,3-b]pyridine], for which the pEC50 in data set [1] was below 4.19; in data set [2] it was below 4.19; in data set [4], 4.51; in data set [3] (setting [7]), below 4.19.
